Patent publication US20220298146A1, “HETEROCYCLIC DERIVATIVE AND USE THEREOF” (Transthera Sciences (Nanjing), Inc., priority 2019, published 2022)

Legend:
H1299 cell pAxl = biological target: T1, H1299 cell pAxl (Homo sapiens, UniProt P30530); test: Inhibitory activity on cell pAxl (H1299 cells, hGAS6 stimulation, Western Blot); type: cell-based; conditions: hGAS6 200 ng/mL, tested at 1.1, 3.3, 10 and 30 nM, read-out: Inhibitory Activity on Cell pAx1, IC50
T1 construct: endogenous in cells; host or cells: H1299
T1 sequence (P30530 26-894): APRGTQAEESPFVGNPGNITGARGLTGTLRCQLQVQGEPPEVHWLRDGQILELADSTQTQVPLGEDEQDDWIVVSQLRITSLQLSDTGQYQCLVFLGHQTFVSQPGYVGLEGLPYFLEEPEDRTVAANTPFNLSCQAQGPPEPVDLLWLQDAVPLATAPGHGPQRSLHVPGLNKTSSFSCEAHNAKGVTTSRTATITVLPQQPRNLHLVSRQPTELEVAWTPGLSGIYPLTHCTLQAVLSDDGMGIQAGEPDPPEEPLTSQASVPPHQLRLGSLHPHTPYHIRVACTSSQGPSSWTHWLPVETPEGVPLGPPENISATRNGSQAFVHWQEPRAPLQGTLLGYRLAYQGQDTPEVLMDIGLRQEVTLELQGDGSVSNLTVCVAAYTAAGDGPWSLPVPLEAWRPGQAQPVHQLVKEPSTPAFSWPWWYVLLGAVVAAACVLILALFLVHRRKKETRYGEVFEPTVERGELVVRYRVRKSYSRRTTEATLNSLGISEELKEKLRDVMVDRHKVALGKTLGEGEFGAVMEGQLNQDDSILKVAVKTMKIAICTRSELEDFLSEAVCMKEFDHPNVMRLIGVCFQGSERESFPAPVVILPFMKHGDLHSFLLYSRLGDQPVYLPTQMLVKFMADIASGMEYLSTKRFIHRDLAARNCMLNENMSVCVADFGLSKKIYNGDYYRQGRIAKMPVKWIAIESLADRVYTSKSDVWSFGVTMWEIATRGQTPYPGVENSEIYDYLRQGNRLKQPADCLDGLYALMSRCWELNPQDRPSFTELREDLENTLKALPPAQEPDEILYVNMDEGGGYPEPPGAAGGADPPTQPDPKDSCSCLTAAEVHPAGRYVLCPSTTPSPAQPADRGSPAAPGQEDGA
Method: (§1) H1299 is a non-small cell lung cancer cell.
(§2) Test samples: the compounds of the present invention, having structures shown above.
(§3) Test instruments: protein electrophoresis apparatus (made by Bio Rad), membrane transfer apparatus (made by Bio Rad), exposure apparatus (made by Tanon), and CO2 cell incubator (made by Thermo).
H1299 cells were inoculated into a 6-well plate (containing 10% FBS 1640 medium, 5×10^5 cells per well) and adherently cultivated at 37° C. and 5% CO2 for 18 h. The cells were starved overnight, and compounds with different concentrations were added. The compounds had final concentrations of 1.1 nM, 3.3 nM, 10 nM and 30 nM, with DMSO having a final concentration of 1‰. There was a medium containing 10‰ DMSO in the negative control well. The cells were incubated at 37° C. and 5% CO2 for 60 min, and then hGAS6 (R&D, final concentration: 200 ng/mL) was added to each well. The cells were further incubated for 60 min, and then the total protein of the cells was extracted for Western Blot experiment. IC50 values were calculated with GraphPad 5.0 software, and the inhibitory activities of the compounds on cell pAxl were detected.

H1299 cell pMer = biological target: T2, H1299 cell pMer (Homo sapiens, UniProt Q12866); test: Inhibitory activity on cell pMer (H1299 cells, Human MerMab stimulation, Western Blot); type: cell-based; conditions: Human MerMab 200 ng/mL, tested at 0.37, 1.1, 3.3 and 10 nM
T2 construct: endogenous in cells; host or cells: H1299
T2 sequence (Q12866 21-999): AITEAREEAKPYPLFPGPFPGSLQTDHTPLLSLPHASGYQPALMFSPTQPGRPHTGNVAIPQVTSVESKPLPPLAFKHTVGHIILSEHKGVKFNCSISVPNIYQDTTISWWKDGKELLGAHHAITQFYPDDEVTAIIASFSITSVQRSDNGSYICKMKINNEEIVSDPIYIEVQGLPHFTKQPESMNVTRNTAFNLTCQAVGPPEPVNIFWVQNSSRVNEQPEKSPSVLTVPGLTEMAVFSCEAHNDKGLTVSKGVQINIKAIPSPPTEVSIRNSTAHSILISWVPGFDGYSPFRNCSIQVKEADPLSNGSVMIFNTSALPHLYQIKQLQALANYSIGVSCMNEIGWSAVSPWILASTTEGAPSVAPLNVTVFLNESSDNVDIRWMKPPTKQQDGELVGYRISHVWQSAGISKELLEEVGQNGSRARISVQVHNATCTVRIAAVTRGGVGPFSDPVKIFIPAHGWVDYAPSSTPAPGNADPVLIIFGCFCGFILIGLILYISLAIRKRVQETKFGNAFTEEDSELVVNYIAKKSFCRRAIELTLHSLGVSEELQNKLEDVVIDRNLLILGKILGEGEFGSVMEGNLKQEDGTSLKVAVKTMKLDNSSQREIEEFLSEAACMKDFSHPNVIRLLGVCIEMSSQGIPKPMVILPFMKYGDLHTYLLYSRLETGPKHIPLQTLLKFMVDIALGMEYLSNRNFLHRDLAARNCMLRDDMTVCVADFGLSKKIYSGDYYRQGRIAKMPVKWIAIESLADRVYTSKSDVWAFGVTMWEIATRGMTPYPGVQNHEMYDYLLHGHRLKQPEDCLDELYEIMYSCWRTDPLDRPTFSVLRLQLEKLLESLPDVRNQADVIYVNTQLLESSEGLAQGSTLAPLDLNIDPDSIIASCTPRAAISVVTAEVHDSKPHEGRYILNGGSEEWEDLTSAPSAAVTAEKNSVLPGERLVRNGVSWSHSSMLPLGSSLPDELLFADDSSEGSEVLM
Method: as §1, §2, §3
H1299 cells were inoculated into a 6-well plate (containing 10% FBS 1640 medium, 5×10^5 cells per well) and adherently cultivated at 37° C. and 5% CO2 for 18 h. The cells were starved overnight, and compounds with different concentrations were added. The compounds had final concentrations of 0.37 nM, 1.1 nM, 3.3 nM and 10 nM, with DMSO having a final concentration of 1‰. There was a medium containing 10‰ DMSO in the negative control well. The cells were incubated at 37° C. and 5% CO2 for 60 min, and then Human MerMab (R&D, final concentration: 200 ng/mL) was added to each well. The cells were further incubated for 60 min, and then the total protein of the cells was extracted for Western Blot experiment. Gray analysis was performed on the results with Image J software, and IC50 values were calculated with GraphPad 5.0 software. The inhibitory activities of the compounds on cell pMer were detected.

Compound | IC50 (H1299 cell pAxl) [nM] | IC50 (H1299 cell pMer) [nM]
CC(C)n1cc(-c2ccc(F)cc2)c(=O)c(C(=O)Nc2ccc(Oc3ccnc(N)c3Cl)cn2)n1 [Compound 11, N-(5-((2-amino-3-chloropyridin-4-yl)oxy)pyridin-2-yl)-5-(4-fluorophenyl)-1-isopropyl-4-oxo-1,4-dihydropyridazine-3-carboxamide] | < 1.1 | 1.1
CC(C)n1cc(-c2ccc(F)cc2)c(=O)c(C(=O)Nc2ncc(Oc3ccnc(N)c3Cl)cn2)n1 [Compound 12, N-(5-((2-amino-3-chloropyridin-4-yl)oxy)pyrimidin-2-yl)-5-(4-fluorophenyl)-1-isopropyl-4-oxo-1,4-dihydropyridazine-3-carboxamide] | 3.3 | 1.1
CC(C)n1cc(-c2ccc(F)cc2)c(=O)c(C(=O)Nc2ccc(Oc3ccnc(N)c3Cl)nc2)n1 [Compound 13, N-(6-((2-amino-3-chloropyridin-4-yl)oxy)pyridin-3-yl)-5-(4-fluorophenyl)-1-isopropyl-4-oxo-1,4-dihydropyridazine-3-carboxamide] | 1.1 to 3.3 | 3.3 to 10
Nc1nccc(Oc2ccc(NC(=O)c3nn(C4CC4)cc(-c4ccc(F)cc4)c3=O)nc2)c1Cl [Compound 17, N-(5-((2-amino-3-chloropyridin-4-yl)oxy)pyridin-2-yl)-1-cyclopropyl-5-(4-fluorophenyl)-4-oxo-1,4-dihydropyridazine-3-carboxamide] | < 1.1 | < 1.1
Nc1nccc(Oc2cnc(NC(=O)c3nn(C4CC4)cc(-c4ccc(F)cc4)c3=O)nc2)c1Cl [Compound 18, N-(5-((2-amino-3-chloropyridin-4-yl)oxy)pyrimidin-2-yl)-5-(4-fluorophenyl)-1-cyclopropyl-4-oxo-1,4-dihydropyridazine-3-carboxamide] | 3.3 | 1.1
Nc1nccc(Oc2ccc(NC(=O)c3nn(C4CC4)cc(-c4ccc(F)cc4)c3=O)cn2)c1Cl [Compound 19, N-(6-((2-amino-3-chloropyridin-4-yl)oxy)pyridin-3-yl)-1-cyclopropyl-5-(4-fluorophenyl)-4-oxo-1,4-dihydropyridazine-3-carboxamide] | 3.3 to 10 | 10
Cn1cc(-c2ccc(F)cc2)c(=O)c(C(=O)Nc2ccc(Oc3ccnc(N)c3Cl)cn2)n1 [Compound 33, N-(5-((2-amino-3-chloropyridin-4-yl)oxy)pyridin-2-yl)-5-(4-fluorophenyl)-1-methyl-4-oxo-1,4-dihydropyridazine-3-carboxamide] | 3.3 to 10 | 3.3
C=CCn1cc(-c2ccc(F)cc2)c(=O)c(C(=O)Nc2ccc(Oc3ccnc(N)c3Cl)cn2)n1 [Compound 35, 1-allyl-N-(5-((2-amino-3-chloropyridin-4-yl)oxy)pyridin-2-yl)-5-(4-fluorophenyl)-4-oxo-1,4-dihydropyridazine-3-carboxamide] | < 1.1 | 0.37
C=CCn1cc(-c2ccc(F)cc2)c(=O)c(C(=O)Nc2ncc(Oc3ccnc(N)c3Cl)cn2)n1 [Compound 37] | 1.1 | 3.3
C=CCn1cc(-c2ccc(F)cc2)c(=O)c(C(=O)Nc2ccc(Oc3ccnc(N)c3Cl)nc2)n1 [Compound 39, 1-allyl-N-(6-((2-amino-3-chloropyridin-4-yl)oxy)pyridin-3-yl)-5-(4-fluorophenyl)-4-oxo-1,4-dihydropyridazine-3-carboxamide] | 1.1 to 3.3 | 3.3 to 10
